This note sets out measurements from ChEMBL document CHEMBL1201862, “PubChem BioAssay data set” (2004).

Among the test systems are HCT-15; RPMI-8226; M19-MEL; OVCAR-3; HL-60; OVCAR-5; Malme-3M; NCI-H522; SK-MEL-5; UACC-62; SF-539; HCC 2998; K562; SNB-19; NCI-H23; HOP-92; KM12; M14.
Test in all cases: NCI tumour cell line growth inhibition, 48 h

Molecules are shown by their SMILES.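 Method: 48-hour compound exposure of cells in 96-well plates, five concentrations, linear interpolation of endpoints. The concentration for 50% growth inhibition is given as GI50.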 Activity calls are given as the source filed them. Cut-off read from the data, not from the text of the source: active = GI50 up to about 1.1 µM and inactive = higher.

Take `CCOC(=O)Cn1c(=O)[nH]c(=O)c2c1ncn2Cc1ccccc1`: the GI50 with HCT-15 is greater than 100 µM; in the assay with RPMI-8226, > 100 µM (inactive); with M19-MEL, > 100 µM (inactive); in the assay with OVCAR-3, > 100 µM (inactive); with HL-60, > 100 µM (inactive); in the assay on OVCAR-5, > 100 µM (inactive). Further, the GI50 with Malme-3M, in the assay on NCI-H522, in the assay with SK-MEL-5, in the assay on UACC-62, with SF-539 and in the assay on HCC 2998 was > 100 µM (inactive) throughout. The GI50 in the assay on K562, in the assay on SNB-19, in the assay on NCI-H23, with HOP-92, in the assay on KM12 and in the assay on M14 was > 100 µM (inactive) each time.
For `Cc1cccc(-n2c(N)c(-c3nc4ccccc4[nH]3)sc2=S)c1`, the GI50 in the assay with HCT-15 is 20.7 µM; in the assay on RPMI-8226, 20.7 µM (inactive); in the assay on M19-MEL, 25.8 µM (inactive); in the assay with OVCAR-3 it was 25 µM (inactive); in the assay with HL-60 it was 26.5 µM (inactive); in the assay on OVCAR-5, 55.1 µM (inactive). Besides, the GI50 was 28.8 µM (inactive) in the assay with Malme-3M; 25.6 µM (inactive) in the assay with NCI-H522; 20.9 µM (inactive) with SK-MEL-5; 18.4 µM (inactive) in the assay on UACC-62; 20.4 µM (inactive) in the assay with SF-539; > 10 µM (inactive) in the assay on HCC 2998. Also, the GI50 with K562 is 29.2 µM (inactive); in the assay with SNB-19, 36.6 µM (inactive); with NCI-H23 it was 49.8 µM (inactive); with KM12 it was 22 µM (inactive); in the assay with M14 it was 25.3 µM (inactive).
In the case of `O=[N+]([O-])c1ccc(C2=Nn3cnnc3SC2)o1`, the GI50 in the assay with HCT-15 is 12 µM; with RPMI-8226, 14.6 µM (inactive); with M19-MEL, 4.02 µM (inactive); in the assay with OVCAR-3 it was 17.1 µM (inactive); in the assay on HL-60, 14.8 µM (inactive); with OVCAR-5, 22.2 µM (inactive). Further, the GI50 with Malme-3M was > 10 µM (inactive); with NCI-H522, > 10 µM (inactive); in the assay on SK-MEL-5, 16.4 µM (inactive); with UACC-62 it was > 10 µM (inactive); in the assay with SF-539, 17.6 µM (inactive); in the assay on HCC 2998 it was 15.8 µM (inactive). The GI50 was 21.5 µM (inactive) in the assay with K562; 29 µM (inactive) with SNB-19; > 10 µM (inactive) with NCI-H23; 26.1 µM (inactive) in the assay on HOP-92; 18.3 µM (inactive) in the assay with KM12; 15.1 µM (inactive) in the assay on M14.
With `Cc1nc2ccccc2nc1CC(=O)C(=O)Nc1ccc(Cl)cc1Cl`, the GI50 in the assay with HCT-15 is greater than 100 µM; in the assay with RPMI-8226, > 100 µM (inactive); in the assay on M19-MEL, > 100 µM (inactive); in the assay on OVCAR-3, > 100 µM (inactive); with HL-60, > 100 µM (inactive); with OVCAR-5, > 100 µM (inactive). Besides, the GI50 in the assay with Malme-3M was > 100 µM (inactive); with NCI-H522 it was 57.4 µM (inactive); in the assay on SK-MEL-5 it was > 100 µM (inactive); in the assay with UACC-62, > 100 µM (inactive); in the assay on SF-539 it was > 100 µM (inactive); in the assay on HCC 2998, > 100 µM (inactive). Besides, the GI50 with K562, in the assay on SNB-19, in the assay on NCI-H23, with HOP-92, in the assay on KM12 and in the assay on M14 was > 100 µM (inactive) throughout.
Turning to `CC(C)=CC(=O)CC(=O)C(=O)Nc1ccc(C)c(C)c1`, the GI50 in the assay on HCT-15 was greater than 100 µM; in the assay on RPMI-8226, > 100 µM (inactive); in the assay with M19-MEL, > 100 µM (inactive); in the assay with OVCAR-3, > 100 µM (inactive); with HL-60, > 100 µM (inactive); in the assay on Malme-3M, > 100 µM (inactive). Besides, the GI50 in the assay on NCI-H522, with UACC-62, in the assay with SF-539, with K562, in the assay with SNB-19 and in the assay on NCI-H23 was > 100 µM (inactive) throughout. In addition, the GI50 in the assay with HOP-92, with KM12 and in the assay with M14 was > 100 µM (inactive) throughout.
For `CC1OC(OC2C(CO)OC(O[C@H]3CC[C@@]4(C)C(=CC[C@H]5[C@@H]6C[C@@H]7O[C@]8(CC[C@@H](C)CN8)[C@@H](C)[C@@H]7[C@@]6(C)CC[C@@H]54)C3)C(O)C2O)C(O)C(O)C1O` (stereo partly specified), the GI50 in the assay with HCT-15 is greater than 100 µM; in the assay with RPMI-8226, > 100 µM (inactive); in the assay on M19-MEL, > 100 µM (inactive); with OVCAR-3, > 100 µM (inactive); in the assay on HL-60, > 100 µM (inactive); with OVCAR-5, > 100 µM (inactive). Further, the GI50 in the assay on Malme-3M was > 100 µM (inactive); with NCI-H522, 70.6 µM (inactive); in the assay with SK-MEL-5, > 100 µM (inactive); in the assay on UACC-62 it was > 100 µM (inactive); in the assay on SF-539, > 100 µM (inactive); in the assay with K562, > 100 µM (inactive). Also, the GI50 was > 100 µM (inactive) with SNB-19; > 100 µM (inactive) in the assay with NCI-H23; 31.7 µM (inactive) with HOP-92; > 100 µM (inactive) with KM12; > 100 µM (inactive) in the assay with M14.
Turning to `COC(=O)C1C(C(=O)OC)C2C(=O)C3C(C(=O)OC)C(C(=O)OC)C3C(=O)C12` (stereo unspecified), the GI50 in the assay with M19-MEL, in the assay on HL-60, in the assay on OVCAR-5, in the assay on Malme-3M, in the assay with NCI-H522 and in the assay on SF-539 was > 100 µM (inactive) each time. Besides, the GI50 in the assay on HCC 2998 was > 100 µM (inactive); in the assay on K562, > 100 µM (inactive); in the assay on SNB-19, > 100 µM (inactive); in the assay with NCI-H23 it was > 100 µM (inactive); with HOP-92 it was 73.5 µM (inactive); in the assay with KM12, > 100 µM (inactive).
Turning to `CN/C(=N/C#N)NCc1ccccc1`, the GI50 in the assay on HCT-15 is greater than 100 µM; in the assay on RPMI-8226, > 100 µM (inactive); in the assay with M19-MEL, > 100 µM (inactive); in the assay with OVCAR-3, > 100 µM (inactive); in the assay with HL-60 it was > 100 µM (inactive); in the assay with OVCAR-5 it was > 100 µM (inactive). Also, the GI50 in the assay on Malme-3M was > 100 µM (inactive); in the assay on NCI-H522, > 100 µM (inactive); in the assay on SK-MEL-5, > 100 µM (inactive); in the assay on SF-539, > 100 µM (inactive); in the assay on HCC 2998, 27.4 µM (inactive); in the assay with SNB-19, > 100 µM (inactive). In addition, the GI50 in the assay on NCI-H23, in the assay on HOP-92, with KM12 and in the assay with M14 was > 100 µM (inactive) each time.
`NC(=S)N/N=C(/CCN1CCCC1)CC(C1=C(O)C2=CCCCC2OC1=O)c1ccccc1` (stereo unspecified): the GI50 is greater than 100 µM with HCT-15; > 100 µM (inactive) with RPMI-8226; > 100 µM (inactive) in the assay with M19-MEL; > 100 µM (inactive) in the assay with OVCAR-3; > 100 µM (inactive) with HL-60; > 100 µM (inactive) in the assay on OVCAR-5. Moreover, the GI50 with Malme-3M, in the assay on NCI-H522, in the assay with SK-MEL-5, in the assay on UACC-62, in the assay on SF-539 and with HCC 2998 was > 100 µM (inactive) throughout. For the same molecule, the GI50 in the assay with K562 was > 100 µM (inactive); in the assay with SNB-19, > 100 µM (inactive); with NCI-H23, > 100 µM (inactive); with HOP-92 it was 32.3 µM (inactive); in the assay on KM12, > 100 µM (inactive); with M14, > 100 µM (inactive).
Consider `Nc1c(-c2nc3ccccc3[nH]2)sc(=S)n1-c1ccccc1`, for which the GI50 was greater than 100 µM in the assay with HCT-15; 34 µM (inactive) in the assay with RPMI-8226; > 100 µM (inactive) in the assay on M19-MEL; 51.2 µM (inactive) in the assay on OVCAR-3; > 100 µM (inactive) in the assay on HL-60; > 100 µM (inactive) in the assay with OVCAR-5. The GI50 was 70.8 µM (inactive) in the assay on Malme-3M; 77.3 µM (inactive) in the assay with NCI-H522; > 100 µM (inactive) with SK-MEL-5; 13.5 µM (inactive) in the assay with UACC-62; > 100 µM (inactive) in the assay on SF-539; > 100 µM (inactive) in the assay on HCC 2998. Besides, the GI50 with K562 is 53.8 µM (inactive); with SNB-19 it was > 100 µM (inactive); with NCI-H23, > 100 µM (inactive); in the assay with HOP-92, > 100 µM (inactive); with KM12 it was > 100 µM (inactive); with M14, > 100 µM (inactive).
Consider `NC(=O)c1c(-c2ccccc2)c(-c2ccccc2)cc2c(=O)c3ccccc3[nH]c12`, for which the GI50 with HCT-15 is 29.8 µM; in the assay with RPMI-8226 it was 28.4 µM (inactive); in the assay on M19-MEL it was 27.6 µM (inactive); in the assay with OVCAR-3, 23.1 µM (inactive); in the assay on OVCAR-5 it was 65.8 µM (inactive); in the assay on Malme-3M it was 17.9 µM (inactive). Further, the GI50 in the assay on NCI-H522 is 5.85 µM (inactive); in the assay on SK-MEL-5 it was 13.7 µM (inactive); in the assay with UACC-62, 25.5 µM (inactive); in the assay with SF-539, 17.5 µM (inactive); with HCC 2998, 43.2 µM (inactive); in the assay with K562, 30.3 µM (inactive). The GI50 with SNB-19 was 21 µM (inactive); in the assay on NCI-H23, 17.5 µM (inactive); with HOP-92, 24.9 µM (inactive); with KM12, 21.8 µM (inactive); in the assay on M14, 33.2 µM (inactive).
In the case of `CC12CC(=O)NN=C1c1ccccc1C2` (stereo unspecified), the GI50 was greater than 100 µM with HCT-15; > 100 µM (inactive) in the assay on RPMI-8226; > 100 µM (inactive) in the assay with M19-MEL; > 100 µM (inactive) in the assay on OVCAR-3; > 100 µM (inactive) in the assay with HL-60; > 100 µM (inactive) with OVCAR-5. In addition, the GI50 in the assay with Malme-3M, in the assay with NCI-H522, in the assay with SK-MEL-5, in the assay with UACC-62, in the assay on SF-539 and with HCC 2998 was > 100 µM (inactive) in each case. Further, the GI50 in the assay with K562, in the assay on SNB-19, with NCI-H23, in the assay on KM12 and with M14 was > 100 µM (inactive) throughout.
